Values of other authors as cited in patent US20160339010A1, “Treatment of Partly Controlled or Uncontrolled Severe Asthma” (TAKEDA GMBH, priority 2014, published 2016).

Columns and labels:
asthma patients = conditions: cited from earlier work
[1] = test system: patients with severe and uncontrolled bronchial asthma; conditions: on top of Fluticasone 500 mcg/Salmeterol 50 mcg twice daily; cited from earlier work
[2] = test system: patients with high-dose corticosteroid dependent asthma; conditions: cited from earlier work

Cn1c(=O)c2[nH]cnc2n(C)c1=O [theophylline]
benefit of add-on therapy to inhaled glucocorticosteroids (asthma patients): no benefit

O=C(Nc1c(Cl)cncc1Cl)c1ccc(OC(F)F)c(OCC2CC2)c1 [Roflumilast]
FEV1 [1]: significantly improved | Forced vital capacity (FVC) [1]: significantly improved | accumulation of neutrophils in induced sputum [1]: reduced | morning PEF [1]: significantly improved

CC(C)(O)c1ccccc1CC[C@@H](SCC1(CC(=O)[O-])CC1)c1cccc(/C=C/c2ccc3ccc(Cl)cc3n2)c1.[Na+] [montelukast, [R-(E)]-1-[[[1-[3-[2-(7-chloro-2-quinolinyl)ethenyl]phenyl]-3-[2-(1-hydroxy-1-methylethyl)phenyl]propyl]thio]methyl]cyclopropaneacetic acid]
sputum eosinophilia [2]: failure of montelukast to reduce
